The text below walks through data of patent publication US20240376084A1, “INHIBITORS OF ALPHA-HEMOLYSIN OF STAPHYLOCOCCUS AUREUS” (Helmholtz-Zentrum Fur Infektionsforschung GmbH, priority 2021, published 2024).

One may read the IC50 as the point on the concentration scale where inhibition reaches its midpoint. Read a low IC50 as greater potency in that assay. One may read the EC50 as the concentration giving half of the maximal effect. A high value points to weaker potency.

Each structure is given as a SMILES string.

In this test the target is hemolysin alpha from Staphylococcus aureus (Staphylococcus aureus, UniProt P09616). Briefly: cell-based.
hemolysin alpha from Staphylococcus aureus, sequence (P09616 27-319 limits assumed): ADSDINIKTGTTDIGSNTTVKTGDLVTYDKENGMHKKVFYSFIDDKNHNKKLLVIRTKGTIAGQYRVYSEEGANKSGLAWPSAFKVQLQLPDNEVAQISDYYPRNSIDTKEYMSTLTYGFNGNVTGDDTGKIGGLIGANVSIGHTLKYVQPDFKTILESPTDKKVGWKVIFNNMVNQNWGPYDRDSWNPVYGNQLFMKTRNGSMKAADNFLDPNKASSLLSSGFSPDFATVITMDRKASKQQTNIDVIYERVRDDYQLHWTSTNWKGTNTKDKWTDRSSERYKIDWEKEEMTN
For `Cc1cc(NS(=O)(=O)c2cc3[nH]c(=O)c(=O)[nH]c3cc2F)cc(C)c1-c1ccoc1` [Compound 166, 7-fluoro-N-(4-(furan-3-yl)-3,5-dimethylphenyl)-2,3-dioxo-1,2,3,4-tetrahydroquinoxaline-6-sulfonamide], the IC50 lay in the range of 0.1 to 1 µM.

`Cc1cc2[nH]c(=O)c(=O)[nH]c2cc1S(=O)(=O)Nc1ccc2c(c1)OC(F)(F)O2` [Compound 241, N-(2,2-difluorobenzo[d][1,3]dioxol-5-yl)-7-methyl-2,3-dioxo-1,2,3,4-tetrahydroquinoxaline-6-sulfonamide] came in with an EC50 of 0.1 to 1 µM.

Turning to `Cc1cc2[nH]c(=O)c(=O)[nH]c2cc1S(=O)(=O)Nc1ccc(-c2c(C)cccc2C)cc1` [Compound 116, N-(2′,6′-dimethyl-[1,1′-biphenyl]-4-yl)-7-methyl-2,3-dioxo-1,2,3,4-tetrahydroquinoxaline-6-sulfonamide], the half-inhibitory concentration (IC50) is 0.1 to 1 µM.

For the compound `Cc1cc2[nH]c(=O)c(=O)[nH]c2cc1S(=O)(=O)Nc1ccc(-c2ccc(F)cc2)c(S(C)(=O)=O)c1` [Compound 397, N-[4-(4-fluorophenyl)-3-methylsulfonyl-phenyl]-7-methyl-2,3-dioxo-1,4-dihydroquinoxaline-6-sulfonamide], the concentration for a half-maximal effect (EC50) is 1 to 3.5 µM.

`CC(C)(C)c1ccc(NS(=O)(=O)c2cc3[nH]c(=O)c(=O)[nH]c3cc2Br)cc1` [Compound 195, 7-bromo-N-(4-(tert-butyl)phenyl)-2,3-dioxo-1,2,3,4-tetrahydroquinoxaline-6-sulfonamide] had a 50% effective concentration (EC50) of 1 to 3.5 µM.

With `CC(C)c1cc2[nH]c(=O)c(=O)[nH]c2cc1S(=O)(=O)Nc1ccc(-c2cccc(Cl)c2)c(Cl)c1` [Compound 178, N-(2,3′-dichloro-[1,1′-biphenyl]-4-yl)-7-isopropyl-2,3-dioxo-1,2,3,4-tetrahydroquinoxaline-6-sulfonamide], the IC50 lay in the range of 0.1 to 1 µM.

Turning to `Cc1ccc(-c2ccc(NS(=O)(=O)c3cc4[nH]c(=O)c(=O)[nH]c4cc3F)cc2Cl)o1` [Compound 158, N-(3-chloro-4-(5-methylfuran-2-yl)phenyl)-7-fluoro-2,3-dioxo-1,2,3,4-tetrahydroquinoxaline-6-sulfonamide], the IC50 lay in the range of 0.1 to 1 µM.

Regarding `COc1ccc(-c2ccc(NS(=O)(=O)c3cc4[nH]c(=O)c(=O)[nH]c4cc3C)cc2Cl)cc1C(N)=O` [Compound 395, 5-[2-chloro-4-[(7-methyl-2,3-dioxo-1,4-dihydroquinoxalin-6-yl)sulfonylamino]phenyl]-2-methoxy-benzamide], the EC50 fell in the range of 1 to 3.5 µM.

Compound `O=c1[nH]c2cc(OC(F)(F)F)c(S(=O)(=O)Nc3ccc(OC(F)(F)F)cc3)cc2[nH]c1=O` [Compound 192, 2,3-dioxo-7-(trifluoromethoxy)-N-(4-(trifluoromethoxy)phenyl)-1,2,3,4-tetrahydroquinoxaline-6-sulfonamide] yielded an EC50 of 0.1 to 1 µM.

`Cc1cc2[nH]c(=O)c(=O)[nH]c2cc1S(=O)(=O)Nc1ccc(F)c(Cl)c1` [Compound 183, N-(3-chloro-4-fluorophenyl)-7-methyl-2,3-dioxo-1,2,3,4-tetrahydroquinoxaline-6-sulfonamide] had an IC50 of 1 to 3.5 µM.

In turn, `O=c1[nH]c2cc(F)c(S(=O)(=O)Nc3ccc(Br)c(Cl)c3)cc2[nH]c1=O` [Compound 148, N-(4-bromo-3-chlorophenyl)-7-fluoro-2,3-dioxo-1,2,3,4-tetrahydroquinoxaline-6-sulfonamide] came in with an IC50 of 0.1 to 1 µM.

Take `Cc1cc(NS(=O)(=O)c2cc3[nH]c(=O)c(=O)[nH]c3cc2Cl)ccc1-c1ccncc1` [Compound 155, 7-chloro-N-(3-methyl-4-(pyridin-4-yl)phenyl)-2,3-dioxo-1,2,3,4-tetrahydroquinoxaline-6-sulfonamide]: the IC50 lay within 0.1 to 1 µM.

In turn, `Cc1cc2[nH]c(=O)c(=O)[nH]c2cc1S(=O)(=O)Nc1nc2ccccc2s1` [Compound 238, N-(benzo[d]thiazol-2-yl)-7-methyl-2,3-dioxo-1,2,3,4-tetrahydroquinoxaline-6-sulfonamide] returned an EC50 of 0.1 to 1 µM.

`Cc1nc2cc(NS(=O)(=O)c3cc4[nH]c(=O)c(=O)[nH]c4cc3C)ccc2s1` [Compound 234, 7-methyl-N-(2-methylbenzo[d]thiazol-5-yl)-2,3-dioxo-1,2,3,4-tetrahydroquinoxaline-6-sulfonamide] registered an EC50 of 1 to 3.5 µM.

In turn, `Cc1cc(NS(=O)(=O)c2cc3[nH]c(=O)c(=O)[nH]c3cc2F)cc(C)c1-c1ccncc1` [Compound 167, N-(3,5-dimethyl-4-(pyridin-4-yl)phenyl)-7-fluoro-2,3-dioxo-1,2,3,4-tetrahydroquinoxaline-6-sulfonamide] showed an IC50 of 1 to 3.5 µM.

In the case of `Cc1nc2ccc(NS(=O)(=O)c3cc4[nH]c(=O)c(=O)[nH]c4cc3C)cc2s1` [Compound 239, 7-methyl-N-(2-methylbenzo[d]thiazol-6-yl)-2,3-dioxo-1,2,3,4-tetrahydroquinoxaline-6-sulfonamide], the EC50 was in the range of 1 to 3.5 µM.

`Cc1cc2[nH]c(=O)c(=O)[nH]c2cc1S(=O)(=O)Nc1cc(Cl)c(Br)cn1` [Compound 226, N-(5-bromo-4-chloropyridin-2-yl)-7-methyl-2,3-dioxo-1,2,3,4-tetrahydroquinoxaline-6-sulfonamide] had an EC50 of 1 to 3.5 µM.

Compound `CC(C)c1cc2[nH]c(=O)c(=O)[nH]c2cc1S(=O)(=O)Nc1ccc(-c2ccncc2)c(Cl)c1` [Compound 159, N-(3-chloro-4-(pyridin-4-yl)phenyl)-7-isopropyl-2,3-dioxo-1,2,3,4-tetrahydroquinoxaline-6-sulfonamide] returned an IC50 of 1 to 3.5 µM.

For `Cc1cc2[nH]c(=O)c(=O)[nH]c2cc1S(=O)(=O)Nc1ccc(N2CCOCC2)c(Cl)c1` [Compound 200, N-(3-chloro-4-morpholinophenyl)-7-methyl-2,3-dioxo-1,2,3,4-tetrahydroquinoxaline-6-sulfonamide], the EC50 was in the range of 1 to 3.5 µM.

Consider `CC(C)c1cc2[nH]c(=O)c(=O)[nH]c2cc1S(=O)(=O)Nc1ccc(-c2ccoc2)c(Cl)c1` [Compound 161, N-(3-chloro-4-(furan-3-yl)phenyl)-7-isopropyl-2,3-dioxo-1,2,3,4-tetrahydroquinoxaline-6-sulfonamide], for which the half-maximal inhibitory concentration (IC50) lay within 0.1 to 1 µM.

Turning to `Cc1cc2[nH]c(=O)c(=O)[nH]c2cc1S(=O)(=O)Nc1ccc2ncccc2c1` [Compound 186, 7-methyl-2,3-dioxo-N-(quinolin-6-yl)-1,2,3,4-tetrahydroquinoxaline-6-sulfonamide], the IC50 fell in the range of 1 to 3.5 µM.

The compound `Cc1cc2[nH]c(=O)c(=O)[nH]c2cc1S(=O)(=O)Nc1nc(C)c(-c2ccccc2)s1` [Compound 240, 7-methyl-N-(4-methyl-5-phenylthiazol-2-yl)-2,3-dioxo-1,2,3,4-tetrahydroquinoxaline-6-sulfonamide] showed an EC50 of 1 to 3.5 µM.

`Cc1ccc(NS(=O)(=O)c2cc3[nH]c(=O)c(=O)[nH]c3cc2C)cc1` [Compound 179, 7-methyl-2,3-dioxo-N-(p-tolyl)-1,2,3,4-tetrahydroquinoxaline-6-sulfonamide] registered a half-inhibitory concentration (IC50) of 0.1 to 1 µM.

Turning to `O=c1[nH]c2cc(F)c(S(=O)(=O)Nc3ccc4ccccc4c3)cc2[nH]c1=O` [Compound 95, 7-fluoro-N-(naphthalen-2-yl)-2,3-dioxo-1,2,3,4-tetrahydroquinoxaline-6-sulfonamide], the IC50 was in the range of 0.1 to 1 µM.

Compound `Cc1cc2[nH]c(=O)c(=O)[nH]c2cc1S(=O)(=O)Nc1cc(C)c(-c2ccncc2)c(C)c1` [Compound 131, N-(3,5-dimethyl-4-(pyridin-4-yl)phenyl)-7-methyl-2,3-dioxo-1,2,3,4-tetrahydroquinoxaline-6-sulfonamide] registered an IC50 of 0.1 to 1 µM.

`Cc1cc2[nH]c(=O)c(=O)[nH]c2cc1S(=O)(=O)Nc1ccc(C#N)cc1` [Compound 129, N-(4-cyanophenyl)-7-methyl-2,3-dioxo-1,2,3,4-tetrahydroquinoxaline-6-sulfonamide] registered a half-maximal inhibitory concentration (IC50) of 1 to 3.5 µM.

Regarding `Cc1cc2[nH]c(=O)c(=O)[nH]c2cc1S(=O)(=O)Nc1cc(C)c(-c2cn[nH]c2)c(C)c1` [Compound 187, N-(3,5-dimethyl-4-(1H-pyrazol-4-yl)phenyl)-7-methyl-2,3-dioxo-1,2,3,4-tetrahydroquinoxaline-6-sulfonamide], the IC50 lay within 1 to 3.5 µM.

The compound `Cc1ccc(NS(=O)(=O)c2cc3[nH]c(=O)c(=O)[nH]c3cc2C)cc1C` [Compound 185, N-(3,4-dimethylphenyl)-7-methyl-2,3-dioxo-1,2,3,4-tetrahydroquinoxaline-6-sulfonamide] yielded a concentration for half-maximal inhibition (IC50) of 1 to 3.5 µM.

In the case of `Cc1ccc(NS(=O)(=O)c2cc3[nH]c(=O)c(=O)[nH]c3cc2C)cc1Cl` [Compound 181, N-(3-chloro-4-methylphenyl)-7-methyl-2,3-dioxo-1,2,3,4-tetrahydroquinoxaline-6-sulfonamide], the IC50 lay in the range of 1 to 3.5 µM.

`O=c1[nH]c2cc([N+](=O)[O-])c(S(=O)(=O)Nc3ccc(OC(F)(F)F)cc3)cc2[nH]c1=O` [Compound 191, 7-nitro-2,3-dioxo-N-(4-(trifluoromethoxy)phenyl)-1,2,3,4-tetrahydroquinoxaline-6-sulfonamide] had an EC50 of 0.1 to 1 µM.

`O=c1[nH]c2cc(C(F)(F)F)c(S(=O)(=O)Nc3ccc(OC(F)(F)F)cc3)cc2[nH]c1=O` [Compound 190, 2,3-Dioxo-N-(4-(trifluoromethoxy)phenyl)-7-trifluoromethyl-1,2,3,4-tetrahydroquinoxaline-6-sulfonamide]: the concentration giving a half-maximal response (EC50) lay within 0.1 to 1 µM.

On to `Cc1cc2[nH]c(=O)c(=O)[nH]c2cc1S(=O)(=O)Nc1cnc(-c2ccc(F)cc2)c(Cl)c1` [Compound 215, N-(5-chloro-6-(4-fluorophenyl)pyridin-3-yl)-7-methyl-2,3-dioxo-1,2,3,4-tetrahydroquinoxaline-6-sulfonamide], for which the EC50 fell in the range of 0.03 to 0.1 µM.

Compound `Cc1cc2[nH]c(=O)c(=O)[nH]c2cc1S(=O)(=O)Nc1ccc(N2CCOCC2C)c(Cl)c1` (stereo not shown) [Compound 201, N-(3-chloro-4-(3-methylmorpholino)phenyl)-7-methyl-2,3-dioxo-1,2,3,4-tetrahydroquinoxaline-6-sulfonamide] showed an EC50 of 0.1 to 1 µM.

Compound `Cc1cc2[nH]c(=O)c(=O)[nH]c2cc1S(=O)(=O)Nc1cc(C)c(-c2cnn(C)c2)c(C)c1` [Compound 184, N-(3,5-dimethyl-4-(1-methyl-1H-pyrazol-4-yl)phenyl)-7-methyl-2,3-dioxo-1,2,3,4-tetrahydroquinoxaline-6-sulfonamide] came in with an IC50 of 1 to 3.5 µM.
